Data on 16 compounds can be found in ChEMBL document CHEMBL3272190, “(2-exo-3-endo)-2-Aryltropane-3-carboxylic esters, a new class of narcotic antagonists” (J Med Chem, 1978).

Series [1] concerns Mus musculus. Put plainly: Induction of hyperactiveness in mouse at 30 mg/kg, sc. In kind it is organism-based. The conditions noted are these: in vivo. Also on record: dose 30 mg/kg, route subcutaneous.
Series [2] deals with Rattus norvegicus. Put plainly: Induction of convulsion in rat at 120 mg/kg, sc. Also on record: dose 120 mg/kg, route subcutaneous. Particulars: in vivo. In kind it is organism-based.
Series [3] has as its system Rattus norvegicus. Put plainly: Narcotic analgesic activity in sc dosed rat assessed as inhibition of phenazocine-induced effect by D'Amour-Smith tail flick test. In kind it is functional.
The subject of series [4] is Mus musculus. Put plainly: Antiwrithing activity in sc dosed mouse assessed as prevention of acetylcholine-induced abdominal constriction response. Particulars: Abdomen. It is filed as functional.
Series [5] concerns Mus musculus. Briefly: Antiwrithing activity in sc dosed mouse assessed as prevention of phenyl-p-benzoquinone-induced abdominal constriction response. It is filed as functional. The conditions noted are these: Abdomen.
Series [6] relates to Rattus norvegicus. Put plainly: Analgesic activity in rat assessed as inhibition of intraarterial bradykinin-induced effect up to 100 mg/kg, sc. In kind it is functional. More on the design: scale not given: the % may be the effect or the level left.
Series [7] relates to Rattus norvegicus. Briefly: Induction of hyperactiveness in rat at 120 mg/kg, sc. It is filed as organism-based. Also on record: dose 120 mg/kg, route subcutaneous. The conditions noted are these: in vivo.
Series [8] deals with Mus musculus. Briefly: Induction of hyperactiveness in mouse at 75 mg/kg, sc. It is filed as organism-based. More on the design: dose 75 mg/kg, route subcutaneous. The conditions noted are these: in vivo.
For series [9], the system named is Rattus norvegicus. Put plainly: Narcotic analgesic activity in po dosed rat assessed as inhibition of phenazocine-induced effect by D'Amour-Smith tail flick test. It is filed as functional.
For series [10], the system named is Rattus norvegicus. Put plainly: Induction of tremors in rat at 120 mg/kg, sc. In kind it is organism-based. Also on record: dose 120 mg/kg, route subcutaneous. The conditions noted are these: in vivo.
The subject of series [11] is Mus musculus. Briefly: Induction of tremors in mouse at 35 mg/kg, sc. Particulars: in vivo. In kind it is organism-based. More on the design: dose 35 mg/kg, route subcutaneous.
Series [12] relates to Mus musculus. Put plainly: Induction of depression in mouse at 35 mg/kg, sc. It is filed as organism-based. The conditions noted are these: in vivo. Also on record: dose 35 mg/kg, route subcutaneous.
Series [13] deals with Mus musculus. Put plainly: Antiwrithing activity in po dosed mouse assessed as prevention of acetylcholine-induced abdominal constriction response. The conditions noted are these: Abdomen. It is filed as functional.
The test system of series [14] is Rattus norvegicus. Briefly: Induction of rigidity in rat at 120 mg/kg, sc. It is filed as organism-based. Also on record: dose 120 mg/kg, route subcutaneous. The conditions noted are these: in vivo.
In series [15] the test system is Rattus norvegicus. Put plainly: Analgesic activity in rat assessed as inhibition of intraarterial bradykinin-induced effect at 10 mg/kg, sc. In kind it is functional, organism-based. Also on record: dose 10 mg/kg.
Series [16] concerns Rattus norvegicus. Briefly: Narcotic analgesic activity in rat assessed as inhibition of phenazocine-induced effect at 10 mg, ip by D'Amour-Smith tail flick test. In kind it is functional, organism-based.
Series [17] concerns Rattus norvegicus. Briefly: Toxicity in rat assessed as mortality at >10 mg, ip. It is filed as organism-based. Particulars: in vivo.
Series [18] has as its system Mus musculus. Briefly: Induction of depression in mouse at 75 mg/kg, sc. It is filed as organism-based. Also on record: dose 75 mg/kg, route subcutaneous. Particulars: in vivo.

Active and inactive are the calls of the source. No cut-off for these calls is given here.

Consider `CC(C)OC(=O)[C@H]1C[C@H]2CC[C@H]([C@H]1c1ccccc1)N2C` (racemic), for which the Activity result in the series with Mus musculus [1] and in the series on Rattus norvegicus [2] was “Toxic” each time. Further, the AD50 in the series with Rattus norvegicus [3] is greater than 80 mg/kg. Further, the ED50 with Mus musculus [4] was found to be 16 mg/kg.

For the compound `COC(=O)[C@H]1C[C@H]2CC[C@H]([C@H]1c1ccc(O)cc1)N2C` (racemic), the Activity result with Mus musculus [1] is “Toxic”. Moreover, in the series with Rattus norvegicus [3], the AD50 is greater than 80 mg/kg. In the series on Mus musculus [4], the ED50 was 7.1 mg/kg.

On to `COC(=O)[C@@H]1C[C@H]2CC[C@H]([C@H]1c1cccc(O)c1)N2C` (racemic), for which the ED50 was 100 mg/kg in the series on Mus musculus [5] and 24 mg/kg with Mus musculus [4]. Moreover, the Activity in the series on Rattus norvegicus [6] (route subcutaneous) worked out at 0%. Moreover, the AD50 with Rattus norvegicus [3] is greater than 80 mg/kg.

For `COC(=O)[C@H]1C[C@H]2CC[C@H]([C@H]1c1cccc(O)c1)N2C` (racemic), the ED50 came to 75 mg/kg in the series with Mus musculus [5] and 16 mg/kg in the series with Mus musculus [4]. Further, the Activity result with Rattus norvegicus [7], in the series with Mus musculus [8] and with Rattus norvegicus [10] was “Toxic” each time. Besides, the AD50 with Rattus norvegicus [9] was found to be 1.8 mg/kg; in the series with Rattus norvegicus [3], 0.37 mg/kg.

As for `COC(=O)[C@H]1C[C@H]2CC[C@H]([C@H]1c1cccc(OC)c1)N2C` (racemic), the Activity entry in the series with Mus musculus [11] and in the series with Mus musculus [12] was “Toxic” each time. In the series on Rattus norvegicus [3], the AD50 is greater than 80 mg/kg. Besides, the ED50 in the series with Mus musculus [4] is 19 mg/kg.

As to `COC(=O)[C@@H]1C[C@H]2CC[C@H]([C@H]1Cc1ccccc1)N2C` (racemic), the Activity result in the series on Mus musculus [8] and in the series with Rattus norvegicus [2] was “Toxic” in each case. The AD50 in the series with Rattus norvegicus [3] is greater than 80 mg/kg. Further, the ED50 in the series on Mus musculus [4] was 5.8 mg/kg.

For the compound `COC(=O)[C@@H]1C[C@H]2CC[C@H]([C@H]1c1cccs1)N2C` (racemic), the results for the ED50 in the series with Mus musculus [13] and in the series with Mus musculus [4] were 35 mg/kg and 12 mg/kg, respectively. Besides, the Activity result in the series with Rattus norvegicus [14], in the series with Rattus norvegicus [10] and in the series with Rattus norvegicus [2] was “Toxic” throughout. In addition, in the series with Rattus norvegicus [6], the outcome was Active. Moreover, the AD50 in the series on Rattus norvegicus [3] was greater than 80 mg/kg.

For the compound `COC(=O)[C@@H]1C[C@H]2CC[C@H]([C@H]1c1ccc[nH]1)N2C` (racemic), the values for the ED50 with Mus musculus [13] and in the series on Mus musculus [4] were 42 mg/kg and 13 mg/kg, respectively. In the series with Rattus norvegicus [15], the outcome was inactive. In addition, in the series with Rattus norvegicus [3], the AD50 was 56 mg/kg.

As to `COC(=O)[C@H]1CCN(C)C[C@H]1c1ccccc1` (relative stereo), the result in the series with Rattus norvegicus [16] was inactive. Further, the Activity result with Rattus norvegicus [17] and in the series on Mus musculus [18] was “Toxic” in each case. Further, the ED50 in the series with Mus musculus [4] amounted to 16 mg/kg.

Consider `COC(=O)[C@H]1CCN(C)C[C@@H]1c1ccccc1` (relative stereo), for which the result with Rattus norvegicus [16] was inactive. For the same compound, the Activity entry in the series on Rattus norvegicus [17] and in the series on Mus musculus [18] was “Toxic” in each case. Also, the 50% effective dose (ED50) in the series with Mus musculus [4] turned out to be 16 mg/kg.

On to `COC(=O)[C@@H]1CCN(C)C[C@@H]1c1cccs1` (relative stereo), for which the AD50 with Rattus norvegicus [3] amounted to 49 mg/kg.

As to `COC(=O)[C@H]1CCN(C)C[C@@H]1c1cccs1` (relative stereo), in the series with Rattus norvegicus [3], the AD50 worked out at 5.6 mg/kg.

With `CCOC(=O)C1(c2ccccc2)CCN(C)CC1` [MEPERIDINE], the AD50 with Rattus norvegicus [9] was 25 mg/kg; in the series with Rattus norvegicus [3] it was 19 mg/kg.

`CN1CC[C@]23c4c5ccc(O)c4O[C@H]2[C@@H](O)C=C[C@H]3[C@H]1C5` [MORPHINE]: the figures for the AD50 with Rattus norvegicus [9] and in the series with Rattus norvegicus [3] were 13 mg/kg and 29 mg/kg, respectively.

In the case of `C=CCN1CC[C@]23c4c5ccc(O)c4O[C@H]2[C@@H](O)C=C[C@H]3[C@H]1C5` [NALORPHINE], the ED50 in the series with Mus musculus [5] turned out to be 15 mg/kg. Besides, the results for the AD50 with Rattus norvegicus [9] and with Rattus norvegicus [3] were 6 mg/kg and 0.1 mg/kg, respectively.

For `C=CCN1CC[C@]23c4c5ccc(O)c4O[C@H]2C(=O)CC[C@@]3(O)[C@H]1C5` [NALOXONE], the ED50 with Mus musculus [5] is 103 mg/kg; in the series on Mus musculus [4], 60 mg/kg. The AD50 with Rattus norvegicus [3] is 0.008 mg/kg.
